Laboratory results reported in paper PMC3291892 (Bioconjugate Chemistry, 2012).

Experiments:
[1] = molecular target: T1, hA3AR (Homo sapiens, UniProt P0DMS8); assay type: cell-based; conditions: at 10 μM; relative to NECA 10 μM
T1 sequence (P0DMS8 1-318): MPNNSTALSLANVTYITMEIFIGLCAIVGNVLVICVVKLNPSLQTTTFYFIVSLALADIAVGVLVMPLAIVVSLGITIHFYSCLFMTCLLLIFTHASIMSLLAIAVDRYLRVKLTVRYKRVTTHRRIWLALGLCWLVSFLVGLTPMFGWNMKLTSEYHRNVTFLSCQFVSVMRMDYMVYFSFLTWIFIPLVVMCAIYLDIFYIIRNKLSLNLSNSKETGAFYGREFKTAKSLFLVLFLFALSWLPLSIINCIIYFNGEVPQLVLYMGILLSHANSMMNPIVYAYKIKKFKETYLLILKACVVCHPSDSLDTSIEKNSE

[2] = molecular target: T1, hA3AR; assay: Radioligand binding at hA3AR; conditions: A3AR versus A1AR

CNC(=O)[C@@]12C[C@@H]1[C@@H](n1cnc3c(NCc4cccc(C#CCCCc5cn(-c6ccc(F)c(N)c6)nn5)c4)nc(Cl)nc31)[C@H](O)[C@@H]2O [Compound 16, (1S, 2R, 3S, 4R, 5S)-4-(2-Chloro-6-(3-(5-(1-(4-fluoro-3-amino-phenyl)-1H-1,2,3-triazol-4-yl)pent-1-ynyl)benzylamino)-9H-purin-9-yl)-2,3-dihydroxybicyclo[3.1.0]hexane-1-carboxylic acid-N-methylamide]
A3AR efficacy in the functional assay (in words) [1]: intermediate efficacy

(1S, 2R, 3S, 4R, 5S)-4-[2-Chloro-6-{3-(1,7-octadiynyl)}-9H-purin -9-yl]- 2, 3-dihydroxybicyclo[3.1.0]hexane-1-carboxylic acid N-methylamide [Compound 10]
A3AR efficacy in the functional assay (in words) [1]: intermediate efficacy

(1S, 2R, 3S, 4R, 5S)-4-[2-Chloro-6-{3-(1,8-nonadiynyl)}-9H-purin -9-yl]- 2, 3-dihydroxybicyclo[3.1.0]hexane-1-carboxylic acid N-methylamide [Compound 11]
A3AR efficacy in the functional assay (in words) [1]: intermediate efficacy

C#CCNc1nc(Cl)nc2c1ncn2[C@H]1[C@H](O)[C@H](O)[C@]2(C(=O)NC)C[C@H]12 [Compound 31, (1S, 2R, 3S, 4R, 5S)-4-(2-Chloro-6-(prop-2-ynylamino)-9H-purin-9-yl)-2,3-dihydroxy-N-methylbicyclo[3.1.0]hexane-1-carboxamide]
selectivity for A3AR in comparison to the A1AR [2]: 270 fold

CNC(=O)[C@@]12C[C@@H]1[C@@H](n1cnc3c(NCc4cccc(C#CCCCCCc5cn(-c6ccc(F)c([N+](=O)[O-])c6)nn5)c4)nc(Cl)nc31)[C@H](O)[C@@H]2O [Compound 14, (1S, 2R, 3S, 4R, 5S)-4-(2-Chloro-6-(3-(7-(1-(4-fluoro-3-nitrophenyl)-1H-1,2,3-triazol-4-yl)hept-1-ynyl)benzylamino)-9H-purin-9-yl)-2,3-dihydroxybicyclo[3.1.0]hexane-1-carboxylic acid-N-methylamide]
A3AR efficacy in the functional assay (in words) [1]: intermediate efficacy
